Data: US7514245B2, “Method for producing chiral α-hydroxycarboxylic acids by enzymatic hydrolysis of chiral cyanohydrins” (DSM Fine Chemicals Austria NFG GmbH & Co. KG, priority 2003, dated 2009)

What was measured:
[1] = tested on: Rhodococcus erythropolis NCIMB 11540 cells; experiment: Enzymatic hydrolysis at different substrate concentrations, Experiment 4.2; format: cell-based; conditions: 5% DMSO, 30° C., resting cells
Description: In experiment 4.2, the reaction was carried out using 2 different substrate concentrations (10 g/l, 20 g/l) on a 5 ml scale.
The biocatalyst was produced according to Example 1, Variant II, 2 l fermentation medium, harvest after 19 hours (OD546 8.4). The cells were resuspended in approximately 140 ml of buffer (resting cells, OD546 52). In each case 4.75 ml of this cell suspension were used for the enzymatic reactions.
Two different concentrations of (R)-2-chloromandelonitrile were studied in parallel batches. The reaction was started by adding 250 μl of substrate solution and was carried out in culture tubes in the shaking cabinet at 30° C. and 130 rpm. To monitor the conversion rate, in each case 200 μl were withdrawn and admixed with 200 μl of 1N HCl. After centrifugation (5 min, 13 000 rpm) and dilution, the conversion rates were determined by HPLC. • a. 50 mg of (R)-2-chloromandelonitrile, dissolved in 250 μl of DMSO ([S]=60 mM, 10 g/l, cosolvent: 5% DMSO)

[2] = tested on: Rhodococcus erythropolis NCIMB 11540 cells; experiment: Enzymatic hydrolysis at different substrate concentrations, Experiment 4.3; format: cell-based; conditions: after 2 h, 3% DMSO, 40° C., resting cells
Description: In experiment 4.3, reactions were carried out using 10 g/l and 15 g/l of (R)-2-chloromandelonitrile. In addition, after complete conversion, the ee of the hydroxy acid formed was determined.
The biocatalyst was produced according to Example 1, Variant II, 2.75 l of the fermentation medium, harvest after 20 hours. The cells were resuspended in approximately 200 ml of buffer (resting cells, OD546 44). In each case 4.85 ml of this cell suspension were used for the enzymatic reactions.
Two different concentrations of (R)-2-chloromandelonitrile were studied in parallel batches. The reaction was started by adding 150 μl of substrate solution and was carried out in culture tubes in the shaking cabinet at 40° C. and 150 rpm. The conversion rate was monitored by means of HPLC. At complete conversion, the hydroxy acid was extracted after acidification and the ee was determined. • a. 50 mg of (R)-2-chloromandelonitrile, dissolved in 150 μl of DMSO ([S]=60 mM, 10 g/l, cosolvent: 3% DMSO)

[3] = tested on: Rhodococcus erythropolis NCIMB 11540 cells; experiment: Enzymatic hydrolysis using different cosolvents, Experiment 5.2; format: cell-based; conditions: 10 g/l, 30° C.
Description: Here, the solvents DMSO, EtOH and ^iPrOH were again used at a fraction of 5%; the substrate concentration was 10 g/l of (R)-2-chloromandelonitrile. The reaction was carried out on a 5 ml scale.
Production of the biocatalyst Example 4, Experiment 4.2 (OD546 8.4). In each case 4.75 ml of the cell suspension (resting cells, OD546 52) were used for the enzymatic reactions. Reactions of (R)-2-chloromandelonitrile (>99%) dissolved in DMSO, EtOH and i-PrOH were carried out in culture tubes at 150 rpm and 30° C. (parallel batches).
To monitor the conversion rate by means of HPLC, in each case 200 μl of sample were admixed with 200 μl of 1N HCl, centrifuged (5 min, 13 000 rpm) and diluted before measurement. After complete conversion, the ee of the product was determined. • a. 50 mg of (R)-2-chloromandelonitrile, dissolved in 250 μl of DMSO ([S]=60 mM, 10 g/l, cosolvent: 5% DMSO)

[4] = tested on: Rhodococcus erythropolis NCIMB 11540 cells; experiment: Enzymatic hydrolysis at different temperatures, Experiment 6.1; format: cell-based; conditions: after 2 h, 10 g/l, 5% DMSO
Description: In Experiment 6.1, the course of the reaction was compared at reaction temperatures of 30° C., 35° C. and 40° C. The batches were carried out on a 5 ml scale using a substrate concentration of 10 g/l of (R)-2-chloromandelonitrile. After complete reaction, the ee of the product was determined.
The biocatalyst was produced according to Example 4, Experiment 4.2 (OD546 8.4). In each case 4.75 ml of the cell suspension (resting cells, OD546 52) were used for the enzymatic reactions. Reactions of 50 mg of (R)-2-chloromandelonitrile (>99%) ([S]=60 mM, 10 g/l), dissolved in 250 μl of DMSO (5%) were carried out at 3 different temperatures (30° C., 35° C., 40° C.) in culture tubes at 150 rpm (parallel batches).
(§1) To monitor the conversion rate by means of HPLC, in each case 200 μl of sample were admixed with 200 μl of 1N HCl, centrifuged (5 min, 13 000 rpm) and diluted before measurement. After complete reaction, the ee of the product was determined.

[5] = tested on: Rhodococcus erythropolis NCIMB 11540 cells; experiment: Enzymatic hydrolysis using resting cells and lyophilized cells (Example 3); format: cell-based; conditions: approximately 20 mM substrate, 30° C.
Description: The biocatalyst was produced in a similar manner to Example 1, Variant I, 2 culture flasks. After 20 hours (OD546=3.5 and 1.8), cells were centrifuged off from 4 times 10 ml aliquots of fermentation broth and washed once with K/Na—PO4 buffer (pH 6.5, 50 mM). Two of the cell samples were lyophilized before activity determination, and the other two were used as resting cells.
The cells were resuspended in 1.8 ml K/Na—PO4 buffer (pH 6.5, 50 mM) (lyophilized cells were shaken for 1 h for rehydration). The reaction was started by adding 200 μl of a 200 mM substrate solution in DMSO (substrate concentration approximately 20 mM) and carried out at 30° C. and 130 rpm in the shaking cabinet. After 30 min, 60 min and 17 h, 200 μl were withdrawn and admixed with 200 μl of 1N HCl. After centrifugation (5 min, 13 000 rpm) and dilution, the conversion rates were determined by means of HPLC. Only the substrate and the two products were taken into consideration in this. The substrate used was (R)-2-chloromandelonitrile (ee>99%). The results are shown in Tab. 3.

[6] = tested on: Rhodococcus erythropolis NCIMB 11540 cells; experiment: Enzymatic hydrolysis at different temperatures, Experiment 6.2; format: cell-based; conditions: after 2 h, 10 g/l, 3% DMSO
Description: In Experiment 6.2, the temperature was increased to 50° C.
The biocatalyst was produced according to Example 4, Experiment 4.3 (OD546 44). In each case 4.85 ml of the cell suspension (resting cells, OD546 44) were used for the enzymatic reactions. Reactions of 50 mg of (R)-2-chloromandelonitrile (>99%) ([S]=60 mM, 10 g/l), dissolved in 150 μl DMSO (3%) were carried out at 3 different temperatures (30° C., 40° C., 50° C.) in culture tubes at 150 rpm (parallel batches).
as §1

[7] = target: T1, Rhodococcus erythropolis NCIMB 11540 nitrile hydratase (Rhodococcus erythropolis, UniProt P13448+P13449); experiment: Nitrile hydratase activity determination of crude lysates with methacrylonitrile; format: biochemical; conditions: 40 mM methacrylonitrile in PBS, 28° C.
T1 construct: made in house; host or cells: E. coli B BL21 (plasmid pMS470Nhase7.3 or pMSNhasetactac7.3), crude lysate
T1 sequence (P13448 1-207): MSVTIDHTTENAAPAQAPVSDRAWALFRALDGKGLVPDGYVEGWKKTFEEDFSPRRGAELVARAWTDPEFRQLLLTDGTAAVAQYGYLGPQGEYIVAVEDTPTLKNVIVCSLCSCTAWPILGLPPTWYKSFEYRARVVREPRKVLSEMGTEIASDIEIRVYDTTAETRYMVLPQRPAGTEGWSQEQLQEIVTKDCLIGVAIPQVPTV
T1 sequence (P13449 1-212): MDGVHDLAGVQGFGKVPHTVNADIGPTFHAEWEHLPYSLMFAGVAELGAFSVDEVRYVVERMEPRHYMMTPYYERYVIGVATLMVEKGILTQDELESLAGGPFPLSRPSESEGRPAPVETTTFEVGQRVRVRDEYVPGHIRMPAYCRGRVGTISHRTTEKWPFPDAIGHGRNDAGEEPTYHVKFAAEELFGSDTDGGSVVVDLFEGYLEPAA
Description: The E. coli B BL21 cells transformed by pMS470Nhase7.3 (or pMSNhasetactac7.3) were isolated on LB-ampicillin plates and an ONC of 100 ml of LB-ampicillin medium was inoculated with an individual colony. On the next morning a main culture consisting of 250 ml of LB-ampicillin medium was inoculated in a 1000 ml chicane flask to an OD600 of 0.01 to 0.03 (Beckmann Photometer). The growth temperature was controlled at 25° C., since at higher temperatures insoluble inclusion bodies are formed exclusively. After the induction density was reached (OD600=1 Beckmann Photometer), the cultures were induced by adding IPTG to give a concentration of 0.1 mM. In addition, the media were supplemented with 0.1 mM ammonium iron(III) citrate. After reaching an OD600>4, the cultures were harvested (centrifugation at approximately 3000-g for 15 min) and washed once with approximately 100 ml of PBS buffer. […]
Activity determination: crude lysates were diluted 1:10 with PBS buffer immediately before activity determination. […] After centrifugation (16 000·g, 10 minutes), the samples were analyzed spectrophotometrically at 224 nm (Perkin Elmer UV/VIS Spectrometer Lambda Bio). […]

[8] = lyophilized cells (19 mg/ml), 30 min
[9] = lyophilized cells (19 mg/ml), 60 min
[10] = lyophilized cells (19 mg/ml), 17 h
[11] = resting cells, 30 min, culture 1 (OD546 3.5)

N#C[C@H](O)c1ccccc1Cl [(R)-2-chloromandelonitrile]
hydroxy acid formed ([1]; after 2 h, 10 g/l (60 mM)): approximately 40%
hydroxy acid formed ([1]; after 18 h, 20 g/l (120 mM)): 36%
hydroxy acid formed ([1]; after 43 h, 20 g/l (120 mM)): 41%
hydroxy acid formed ([2]; 10 g/l (60 mM)): 80%
hydroxy acid formed ([2]; 15 g/l (90 mM)): approximately 60%
hydroxy acid formed ([3]; after 2 h, cosolvent 5% DMSO): approximately 40%
hydroxy acid formed ([3]; after 3 h, cosolvent 5% EtOH): 35%
hydroxy acid formed ([3]; after 3 h, cosolvent 5% i-PrOH): 8%
hydrolysis to form the hydroxy acid complete ([3]; after 19 h, cosolvent 5% EtOH): 94%
hydroxy acid formed ([3]; after 44 h, cosolvent 5% i-PrOH): 64%
hydroxy acid formed ([4]; T=30° C.): 42%
hydroxy acid formed ([4]; T=35° C.): 65%
hydroxy acid formed ([4]; T=40° C.): 86%
Conversion rate CH (cyanohydrin) [5, 8]: 40%
Conversion rate HA (hydroxyamide) [5, 8]: <1%
Conversion rate CH (cyanohydrin) [5, 9]: 41%
Conversion rate HA (hydroxyamide) [5, 9]: 0%
Conversion rate CH (cyanohydrin) [5, 10]: 43%
Conversion rate HA (hydroxyamide) [5, 10]: <1%
Conversion rate CH (cyanohydrin) [5, 11]: 100%
Conversion rate HA (hydroxyamide) [5, 11]: 2%
Conversion rate HA (hydroxyamide) ([5]; resting cells, 60 min, culture 1 (OD546 3.5)): 4%
Conversion rate HA (hydroxyamide) ([5]; resting cells, 17 h, culture 1 (OD546 3.5)): 42%
hydroxy acid formed ([6]; T=30° C.): 42%
hydroxy acid formed ([6]; T=40° C.): 80%
hydroxy acid formed ([6]; T=50° C.): 92%

C=C(C)C#N [methacrylonitrile]
typical activity of crude lysates ([7]; pMS470Nhase7.3 lysate): 100-250 U/ml
typical activity of crude lysates ([7]; pMSNhasetactac7.3 lysate): 350-500 U/ml
